This passage reports efficacy as germicide-surfactant results from patent US20060222675A1, “Personal care compositions with color changing indicator” (priority 2005, published 2006).

This assay has as its system bacteria, virus and yeast. The assay can be described thus: germicidal efficacy of surfactant-detergent compounds. The settings on record: surfactants tested separately and in combination. An excerpt: Disinfecting surfactant-detergent compounds are also used in the liquid composition. Surfactants are effective germicides and attack the membranes of the organisms. Also, the surfactants are surface active reducing surface tension. […] It is thought that the surfactant has two characteristics which contribute to this invention. Those being germicidal activity including effectiveness over a wide range of organisms including bacteria, virus and yeast and providing a reduction of the surface tension of the composition to achieve effective spread and distribution if the germicide on the surface to be disinfected. Two different types of surfactants were tested separately and in combination for efficacy. […] There are other compounds which have the properties of germicide-surfactants, and this invention is not limited to those compounds shown in the examples.

On to `CCCCCCCCCCCCOS(=O)(=O)[O-].[Na+]` [sodium dodecyl sulfate], for which the efficacy as germicide-surfactant result is reported as “effective germicide-surfactants”.
As to octyl phenoxy polyethoxyethanol, the efficacy as germicide-surfactant entry is given as “effective germicide-surfactants”.
